Reference: ChEMBL document CHEMBL1201862, “PubChem BioAssay data set” (2004)
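Briefly, cells in 96-well plates were exposed to five compound concentrations for 48 h, and endpoints were estimated by linear interpolation. Here, GI50 denotes the concentration required for 50% inhibition of growth.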 The source made the active and inactive calls. Cut-off read from the data, not from the text of the source: active = GI50 up to about 1.1 µM and inactive = higher.

Experiments:
Assay in all cases: NCI anticancer screen, dose series, 48 h
RXF 393 = test system: RXF 393
LXFL 529 = test system: LXFL 529
SF-539 = test system: SF-539
CAKI-1 = test system: CAKI-1
TK-10 = test system: TK-10
COLO 205 = test system: COLO 205
SK-MEL-2 = test system: SK-MEL-2
UO-31 = test system: UO-31
OVCAR-5 = test system: OVCAR-5
MDA-MB-231 = test system: MDA-MB-231
RPMI-8226 = test system: RPMI-8226
786-0 = test system: 786-0
LOX IMVI = test system: LOX IMVI
XF498 = test system: XF498
SNB-19 = test system: SNB-19
UACC-257 = test system: UACC-257
IGROV-1 = test system: IGROV-1
SK-MEL-5 = test system: SK-MEL-5
EKVX = test system: EKVX
NCI/ADR-RES = test system: NCI/ADR-RES
HT-29 = test system: HT-29
DMS-114 = test system: DMS-114
SN12C = test system: SN12C
RXF 631 = test system: RXF 631
SK-MEL-28 = test system: SK-MEL-28
CCRF-CEM = test system: CCRF-CEM
PC-3 = test system: PC-3
DU-145 = test system: DU-145
HOP-92 = test system: HOP-92
BT-549 = test system: BT-549
T47D = test system: T47D
OVCAR-3 = test system: OVCAR-3
M19-MEL = test system: M19-MEL
NCI-H23 = test system: NCI-H23
SF-268 = test system: SF-268
KM12 = test system: KM12
U-251 = test system: U-251
HCT-15 = test system: HCT-15
A498 = test system: A498
HCC 2998 = test system: HCC 2998
NCI-H460 = test system: NCI-H460
SF-295 = test system: SF-295
SK-OV-3 = test system: SK-OV-3
OVCAR-8 = test system: OVCAR-8
HOP-62 = test system: HOP-62
M14 = test system: M14
A549 = test system: A549
MDA-N = test system: MDA-N
OVCAR-4 = test system: OVCAR-4
DLD-1 = test system: DLD-1
ACHN = test system: ACHN
Malme-3M = test system: Malme-3M
SR = test system: SR
SNB-75 = test system: SNB-75
SW-620 = test system: SW-620
NCI-H226 = test system: NCI-H226
NCI-H522 = test system: NCI-H522
SNB-78 = test system: SNB-78
KM-20L2 = test system: KM-20L2
MOLT-4 = test system: MOLT-4
UACC-62 = test system: UACC-62
HOP-18 = test system: HOP-18
MCF7 = test system: MCF7
K562 = test system: K562
HCT-116 = test system: HCT-116
DMS-273 = test system: DMS-273
MDA-MB-435 = test system: MDA-MB-435
HL-60 = test system: HL-60
Hs-578T = test system: Hs-578T

Compound: CN1C(c2ccccc2)CC(=NOCc2ccccc2)CC1c1ccccc1 (centres undefined)
- GI50 (RXF 393): 54.5 µM (inactive)
- GI50 (LXFL 529): 16.8 µM (inactive)
- GI50 (SF-539): 36.9 µM (inactive)
- GI50 (CAKI-1): 55 µM (inactive)
- GI50 (TK-10): 46.9 µM (inactive)
- GI50 (COLO 205): 50.6 µM (inactive)
- GI50 (SK-MEL-2): 57.4 µM (inactive)
- GI50 (UO-31): 43.6 µM (inactive)
- GI50 (OVCAR-5): 70.8 µM (inactive)
- GI50 (MDA-MB-231): 43.7 µM (inactive)
- GI50 (RPMI-8226): 37.2 µM (inactive)
- GI50 (786-0): 38.9 µM (inactive)
- GI50 (LOX IMVI): 14.8 µM (inactive)
- GI50 (XF498): > 100 µM (inactive)
- GI50 (SNB-19): 44.3 µM (inactive)
- GI50 (UACC-257): 64.7 µM (inactive)
- GI50 (IGROV-1): 38.1 µM (inactive)
- GI50 (SK-MEL-5): 33.7 µM (inactive)
- GI50 (EKVX): 41.3 µM (inactive)
- GI50 (NCI/ADR-RES): 19.3 µM (inactive)
- GI50 (HT-29): 26.2 µM (inactive)
- GI50 (DMS-114): 17.7 µM (inactive)
- GI50 (SN12C): 44.6 µM (inactive)
- GI50 (RXF 631): 31.2 µM (inactive)
- GI50 (SK-MEL-28): 40.8 µM (inactive)
- GI50 (CCRF-CEM): 11.6 µM (inactive)
- GI50 (PC-3): 24.7 µM (inactive)
- GI50 (DU-145): 47.6 µM (inactive)
- GI50 (HOP-92): 48.9 µM (inactive)
- GI50 (BT-549): 16.9 µM (inactive)
- GI50 (T47D): 17.7 µM (inactive)
- GI50 (OVCAR-3): 29 µM (inactive)
- GI50 (M19-MEL): > 100 µM (inactive)
- GI50 (NCI-H23): 28.2 µM (inactive)
- GI50 (SF-268): 24.3 µM (inactive)
- GI50 (KM12): 21.9 µM (inactive)
- GI50 (U-251): 34.1 µM (inactive)
- GI50 (HCT-15): 23.2 µM
- GI50 (A498): 44.7 µM (inactive)
- GI50 (HCC 2998): > 71.9 µM (inactive)
- GI50 (NCI-H460): 19.1 µM (inactive)
- GI50 (SF-295): 44.2 µM (inactive)
- GI50 (SK-OV-3): 75 µM (inactive)
- GI50 (OVCAR-8): 21.5 µM (inactive)
- GI50 (HOP-62): 49.5 µM (inactive)
- GI50 (M14): 42.5 µM (inactive)
- GI50 (A549): 20.7 µM (inactive)
- GI50 (MDA-N): 23.3 µM (inactive)
- GI50 (OVCAR-4): 22.5 µM (inactive)
- GI50 (DLD-1): 46.7 µM (inactive)
- GI50 (ACHN): 46.1 µM (inactive)
- GI50 (Malme-3M): 50.9 µM (inactive)
- GI50 (SR): 13.6 µM (inactive)
- GI50 (SNB-75): 31.4 µM (inactive)
- GI50 (SW-620): 28.1 µM (inactive)
- GI50 (NCI-H226): 52.8 µM (inactive)
- GI50 (NCI-H522): 21.8 µM (inactive)
- GI50 (SNB-78): 42.5 µM (inactive)
- GI50 (KM-20L2): > 80.2 µM (inactive)
- GI50 (MOLT-4): 23.7 µM (inactive)
- GI50 (UACC-62): 52.4 µM (inactive)
- GI50 (HOP-18): 48 µM (inactive)
- GI50 (MCF7): 18.6 µM (inactive)
- GI50 (K562): 13.8 µM (inactive)
- GI50 (HCT-116): 18.5 µM (inactive)
- GI50 (DMS-273): 33.7 µM (inactive)
- GI50 (MDA-MB-435): 16.9 µM (inactive)
- GI50 (HL-60): 19 µM (inactive)
- GI50 (Hs-578T): 36 µM (inactive)
